Measurements published in patent publication US12708620B2, “Prodrugs and medical uses thereof” (priority 2018, dated 2026).
Read-outs that look alike come from different tables or passages of the source.

Key:
NCI-H1975 = assay: resazurin-based potency assay, normoxia vs anoxia; type: cell-based, human; conditions: for IC50: Homo sapiens, 4 h exposure then 96 h
Procedure: (§1) The IC50 values were obtained using the resazurin-based potency assay under anoxic (<0.01% O2) and/or normoxic conditions (21% O2). The hypoxia cytotoxicity ratio (HCR) is calculated as the ratio of IC50 value […] (HCR=IC50 normoxia/IC50 anoxia).
(§2) For anoxic condition, the complete medium for each cell line (25 ml in a T25 or 80 ml in a T80) was equilibrated in the anoxic chamber 48 h before use to allow an as large as possible interchange between media and atmosphere, agitating the flask once a day and just before use. The 96-well plates for cell seeding and the 96-well plates for preparation of a mother plate containing the compound to be tested (e.g. Cpd.11 Ms) at appropriate concentrations as well as disposable reagent reservoirs and pipet tips that are required for cell seeding under anoxic conditions were placed in anoxia at least 72 h before use. The mother plate for treatment of the cells under anoxia was prepared with anoxic medium and in anoxia pre-incubated plastics, the mother plate for treatment of the cells in normoxia was prepared with normoxic medium in a standard cell culture hood.
(§3) Cell seeding was performed starting from a cell suspension (70% confluent flasks of cells). Appropriate cell numbers/volumes were used at the pre-determined cell density (typically 100 μl/well) as determined by performing a growth curve experiment were calculated. For anoxic conditions, the appropriate number of cells was transferred to the anoxic chamber and diluted to the appropriate cell concentration in anoxic complete medium. The cells were allowed to adhere for 2 hours in the anoxic chamber at 37° C. In normoxic conditions, usual cell seeding and complete medium protocols were used (in a volume of 100 μl/well in 96-well plates). The cells were allowed to adhere for 2 hours at 37° C. in a regular cell culture CO2 incubator. In both conditions, the remaining empty wells in 96-well plates were filled with 200 μl anoxic or normoxic medium to prevent evaporation.
(§4) Fresh Cpd.11 Ms stock solution was thawed just before the experiment and shielded from the light. A 96-well microtiter plate was filled with 176.4 μl of complete normoxic (RT) or anoxic medium in the first column and 120 μl of complete normoxic or anoxic medium with 2% DMSO for the other columns of wells. 3.6 μl per well of the compound stock solution (Cpd.11, Cpd.11 Ms, Cpd.11c, or Cpd.11d; 150 mM) was added to the first column. The solution of the first column was pipetted up and down and 60 μl was transferred to the second column to perform 1/3 serial dilutions pipetting up and down 3 times between each transfer. This was repeated until the 11th column. No Cpd.11 Ms was added to the 12th column. The plate was prepared no longer than 30 minutes before use and protected from direct light exposure. Two hours after seeding the cells, 100 μl of the mother plate was added to each well and plates remained for 4 h in the anoxic chamber or in cell culture incubator at 37° C. After 4 h, the plate in the anoxic chamber was transferred to normoxia. Visual inspection of all plates (few random wells per plate) under microscope was performed and medium was removed from all plates by aspiration. Cells were washed once with 200 μl PBS (RT) and 200 μl of fresh normoxic complete medium (RT) was added to each well (including all wells without cells). All plates were incubated for 96 hours in normoxia at 37° C. in a standard cell culture incubator.
(§5) For the cell viability assay, the resazurin final working solution was prepared freshly by diluting the resazurin stock solution (0.1 mg/ml) 1/10 in complete medium (RT) of the respective cell lines to obtain a final concentration of 0.01 mg/ml resazurin. After 96 hours incubation in normoxia, a visual inspection of all the plates (few random wells per plate) was performed under the microscope and the medium in each well was removed by aspiration. […]

BT-474 = assay: resazurin-based potency assay, normoxia vs anoxia; type: cell-based, human; conditions: for IC50: Homo sapiens, 4 h exposure then 96 h
Procedure: as §1, §2, §3, §4, §5

MDA-MB-231 = assay: resazurin-based potency assay, normoxia vs anoxia; type: cell-based, human; conditions: for IC50: Homo sapiens, 4 h exposure then 96 h
Procedure: as §1, §2, §3, §4, §5

NCI-H1650 = assay: resazurin-based potency assay, normoxia vs anoxia; type: cell-based, human; conditions: for IC50: Homo sapiens, 4 h exposure then 96 h
Procedure: as §1, §2, §3, §4, §5

HCC1937 = assay: resazurin-based potency assay, normoxia vs anoxia; type: cell-based, human; conditions: for IC50: Homo sapiens, 4 h exposure then 96 h
Procedure: as §1, §2, §3, §4, §5

BxPC-3 = assay: resazurin-based potency assay, normoxia vs anoxia; type: cell-based, human; conditions: for IC50: Homo sapiens, 4 h exposure then 96 h
Procedure: as §1, §2, §3, §4, §5

DMS114 = assay: resazurin-based potency assay, normoxia vs anoxia; type: cell-based, human; conditions: for IC50: Homo sapiens, 4 h exposure then 96 h
Procedure: as §1, §2, §3, §4, §5

PANC-1 = assay: resazurin-based potency assay, normoxia vs anoxia; type: cell-based, human; conditions: for IC50: Homo sapiens, 4 h exposure then 96 h
Procedure: as §1, §2, §3, §4, §5

SW1990 tumor xenograft = assay: pancreatic cancer xenograft model; type: in vivo, BALB/c Nude Mice; conditions: 600 mg/kg IP, hypoxic status absent, methanesulfonate
[1] = preliminary toxicology study, intravenous administration; type: in vivo, rat
Procedure: Preliminary toxicology studies of the intravenous administration of Cpd.11 Ms in rats and dogs according to a dosing regimen consisting of 3 consecutive days of administration in a 3 weekly cycle (QDx3/cycle) have shown that potential haematological toxicity in tissues such as the bone marrow, the thymus and lymph nodes (known to have hypoxic niches) can be minimized at dosages at or below 400 mg/kg in the rat and at or below 100 mg/kg in the dog. As such, these levels correspond to 2360 mg/m^2 and 2000 mg/m^2, respectively, in human subjects. […] Alternative dosing regimens also include weekly administration for up to 3 or 4 consecutive times of each 3 or 4 weekly cycle. In addition, also an initial dose of QDx3 or QDx5 could be combined with less frequent administration schedules that may still allow a therapeutic effect over tumor growth and development, such as up to 3 or 4 weekly dosages in 3 to 4 weekly cycles, or once a month (or every three-four weeks) schedules that be applied with or without the parallel treatment with the appropriate standard-of-care protocols.

[2] = anoxia (<0.01% O2), read-out: IC50 Average for Cpd.11Ms ANX (SD)
[3] = normoxia (21% O2), read-out: IC50 Average for Cpd.11Ms NRX (SD)

Q: What does the source list for `CCN1CCN(C(=O)c2cc(N(CCBr)CCOS(C)(=O)=O)c(S(C)(=O)=O)cc2[N+](=O)[O-])CC1.CS(=O)(=O)O` [Cpd.11 Ms, 4-(5-((2-bromoethyl) (2-((methylsulfonyl)oxy)ethyl)amino)-4-(methylsulfonyl)-2-nitrobenzoyl)-1-ethylpiperazin-1-ium methanesulfonate]?
A: Average of HCR (SD) (NCI-H1975; HCR=IC50 normoxia/IC50 anoxia): 52.6 (36.4); IC50 (NCI-H1975; [2]): 28.7 µM; IC50 (NCI-H1975; [3]): 1140 µM; Average of HCR (SD) (BT-474; HCR=IC50 normoxia/IC50 anoxia): 102.6 (15.2); IC50 (BT-474; [2]): 14.8 µM; IC50 (BT-474; [3]): > 1500 µM; Average of HCR (SD) (MDA-MB-231; HCR=IC50 normoxia/IC50 anoxia): 10.4 (3.0); IC50 (MDA-MB-231; [2]): 121 µM; IC50 (MDA-MB-231; [3]): 1250 µM; Average of HCR (SD) (NCI-H1650; HCR=IC50 normoxia/IC50 anoxia): 28.2 (5.4); IC50 (NCI-H1650; [2]): 45.1 µM; IC50 (NCI-H1650; [3]): 1250 µM; Average of HCR (SD) (HCC1937; HCR=IC50 normoxia/IC50 anoxia): 28.8 (8.3); IC50 (HCC1937; [2]): 53.1 µM; IC50 (HCC1937; [3]): 1450 µM; Average of HCR (SD) (BxPC-3; HCR=IC50 normoxia/IC50 anoxia): 22.7 (4.2); IC50 (BxPC-3; [2]): 68.2 µM; IC50 (BxPC-3; [3]): > 1500 µM; Average of HCR (SD) (DMS114; HCR=IC50 normoxia/IC50 anoxia): 96.3 (26.2); IC50 (DMS114; DMS-114, anoxia (<0.01% O2), read-out: IC50 Average for Cpd.11Ms ANX (SD)): 6.2 µM; IC50 (DMS114; DMS-114, normoxia (21% O2), read-out: IC50 Average for Cpd.11Ms NRX (SD)): 564 µM; Average of HCR (SD) (PANC-1; HCR=IC50 normoxia/IC50 anoxia): 24.0 (1.0); IC50 (PANC-1; [2]): 43.6 µM; IC50 (PANC-1; [3]): 1040 µM; Anti-tumor effect (SW1990 tumor xenograft; listed as Cpd.11Ms): No impact; Anti-tumor effect (SW1990 tumor xenograft): not observed; corresponding level in human subjects of the rat dosage ([1]; from 400 mg/kg in the rat): 2360 mg/m^2; dosage at which potential haematological toxicity (bone marrow, thymus, lymph nodes) can be minimized ([1]; rat, intravenous, QDx3 in a 3 weekly cycle): ≤ 400 mg/kg
